Assay [1] deals with C57BL/6 mice, diffuse TBI. In words: Neurological severity score after TBI. To be noted: 10 mg/kg i.p. 30 min prior to TBI, 2, 5 and 7 DPI. The class given is in vivo, mouse. The method, then:
30 min prior to TBI or sham injury, mice were randomly assigned to a therapeutic group and received an intraperitoneal injection of 2LS80Mel (10 mg/kg) or sterile saline (0.25 ml). Groups were as follows: TBI-2LS80Mel n = 17; TBI-vehicle n = 17; sham n = 22 (vehicle n = 11, 2LS80Mel n = 11).
For injury induction 24 h post-surgery, mice were re-anesthetized with 5% isoflurane delivered for 3 min. The cap was removed from the injury-hub assembly and the dura was visually inspected through the hub to ensure it was intact with no debris. […] Injured mice were monitored for presence of a forearm fencing response and righting reflex times were recorded as indicators of injury severity ([Hosseini and Lifshitz, 2009]). […] After spontaneously righting, mice were placed in a heated recovery cage and monitored until they were ambulatory (approximately 5–15 min) before being returned to their piezoelectric sleep cage (see below). […]
Neurological impairments were assessed at 2, 5, and 7 DPI using an 8-point NSS paradigm adapted from those previously used in experimental models of TBI and previously reported by our lab ([Chen et al., 1996]; [Semple et al., 2010]; [Pleasant et al., 2011]; [Ziebell et al., 2011]; [Rowe et al., 2018]; [Rowe et al., 2019]). […]

The test system of assay [2] is Sprague Dawley rats, 6-OHDA lesion. The experiment in a line: Amphetamine-induced rotations, mild 6-OHDA hemi-parkinsonian rat model (study 1). It counts as in vivo. The note with it: mild lesion (25%), 15 mg/kg i.p. 6 h prior to and 24 h post-lesion, 2 + 4 weeks, vs vehicle. Here is the method:
Rats were treated with 2LS98Lac or saline (vehicle) as outlined in the Schemes in Figures 9A,B via intraperitoneal (i.p.) injection (15 mg/kg). All animals were made hemi-parkinsonian with unilateral, striatal 6-hydroxydopamine (Sigma Aldrich, St. Louis, MO) injections. After surgery, behavioral assessments were done at 2- and 4-weeks post-surgery. 24 h after the last test animals were either euthanized and whole brains were harvested for future biochemical analysis or perfused and brains collected for immunohistochemistry and stereological assessment of tyrosine hydroxylase-positive (TH+) cells remaining in the SNc. In study 1: n = 16 each group were included, and all underwent the behavioral analysis: n = 16, and for the stereology in the SNc, n = 8 each group was used. […]
In order to pharmacologically assess the degree of dopaminergic (DA) depletion in the lesioned side, animals were given amphetamine, an indirectly acting DA agonist and placed into a plexiglass cylinder (38 cm tall × 38 cm across) enclosed in an open field box ([Yue et al., 2011]). Dextro-amphetamine in sterile 0.9% saline (Sigma-Aldrich) was injected i.p. at 5 mg/kg, and rotations were recorded from above using Logitech HD web cameras connected to an Acer Aspire SWS-015 computer. An observer blinded to the groups counted rotations in both the ipsilateral and contralateral rotations for the entire 70 min period. […]

With `CC[C@H](C)[C@H](NC(=O)CNC(=O)[C@H](CC(=O)O)NC(=O)[C@H](CO)NC(=O)[C@@H](N)Cc1c[nH]cn1)C(=O)N[C@@H](Cc1ccccc1)C(=O)N[C@H](C(=O)N[C@@H](CC(=O)O)C(=O)N[C@@H](CO)C(=O)N[C@@H](Cc1ccc(O)cc1)C(=O)N[C@@H](CO)C(=O)N[C@@H](CCCNC(=N)N)C(=O)N[C@@H](Cc1ccc(O)cc1)C(=O)N[C@@H](CCCNC(=N)N)C(=O)N[C@@H](CCCCN)C(=O)N[C@@H](CCC(N)=O)C(=O)N[C@@H](CC(C)C)C(=O)N[C@@H](C)C(=O)N[C@H](C(=O)N[C@@H](CCCCN)C(=O)N[C@@H](CCCCN)C(=O)N[C@@H](Cc1ccc(O)cc1)C(=O)N[C@@H](CC(C)C)C(=O)N[C@@H](C)C(=O)N[C@@H](C)C(=O)N[C@H](C(=O)N[C@@H](CC(C)C)C(=O)N[C@@H](CO[C@@H]1O[C@H](CO[C@H]2O[C@H](CO)[C@H](O)[C@H](O)[C@H]2O)[C@@H](O)[C@H](O)[C@H]1O)C(N)=O)C(C)C)C(C)C)[C@@H](C)O` [Compound 2LS80Mel], the “Neurological severity score (sensorimotor deficits)” value in assay [1] is “deficits were prevented”.

Take `[2H]C([2H])([2H])C([2H])(C([2H])([2H])[2H])[C@]([2H])(NC(=O)[C@H](C)NC(=O)[C@H](C)NC(=O)[C@H](CC(C)C)NC(=O)[C@H](Cc1ccc(O)cc1)NC(=O)[C@H](CCCCN)NC(=O)[C@H](CCCCN)NC(=O)[C@@]([2H])(NC(=O)[C@H](C)NC(=O)[C@H](CC(C)C)NC(=O)[C@H](CCC(N)=O)NC(=O)[C@H](CCCCN)NC(=O)[C@H](CCCNC(=N)N)NC(=O)[C@H](Cc1ccc(O)cc1)NC(=O)[C@H](CCCNC(=N)N)NC(=O)[C@H](CO)NC(=O)[C@H](Cc1ccc(O)cc1)NC(=O)[C@H](CO)NC(=O)[C@H](CC(=O)O)NC(=O)[C@@H](NC(=O)[C@H](Cc1ccccc1)NC(=O)[C@@H](NC(=O)CNC(=O)[C@H](CC(=O)O)NC(=O)[C@H](CO)NC(=O)[C@@H](N)Cc1c[nH]cn1)[C@@H](C)CC)[C@@H](C)O)C([2H])(C([2H])([2H])[2H])C([2H])([2H])[2H])C(=O)N[C@@H](CC(C)C)C(=O)N[C@@H](CO[C@@H]1O[C@H](CO)[C@@H](O[C@@H]2O[C@H](CO)[C@H](O)[C@H](O)[C@H]2O)[C@H](O)[C@H]1O)C(N)=O` [Compound 2LS98Lac]: in assay [2], the “Cumulative contralateral amphetamine-induced rotations” value is “significantly decreased”.

Source of the values: paper PMC8887546, “Design and Synthesis of Brain Penetrant Glycopeptide Analogues of PACAP With Neuroprotective Potential for Traumatic Brain Injury and Parkinsonism” (Frontiers in drug discovery, 2022).
